One assay concerns tumors. As to the kind of experiment: Solid stress after a panel of ARBs. Format: in vivo. Conditions: 40 mg/kg losartan, 3.2 mg/kg candesartan, 32 mg/kg valsartan. As for the experimental part:
Solid stress levels in tumors after angiotensin inhibition using the ARBs losartan, candesartan, and valsartan are shown. Doses were chosen based on their relative doses in patients for hypertension indications (40 mg/kg losartan, 3.2 mg/kg candesartan, 32 mg/kg valsartan). […] Animal numbers n=6-7. Statistical tests were corrected for multiple comparisons using the Holm-Bonferroni method.
The mechanism responsible for the increase in tumor vessel perfusion by losartan was investigated. Desmoplasia, high stromal cell and matrix density, is a major contributor to the solid stress accumulation that compresses vessels (Stylianopoulos T, et al., Growth-induced mechanical stress in murine and human tumors: causes, consequences and remedies. under review. 2012). Since angiotensin inhibitors reduce matrix production in tumors (Diop-Frimpong B, et al., Proc Natl Acad Sci USA. 2011; 108(7): 2909-14), it was hypothesized that they decompress vessels and increase perfusion by decreasing solid stress. Collagen levels were used as a metric of matrix production as described in Diop-Frimpong et al., Proc Nall Acad Sci USA. […] Moreover, losartan decreased collagen I concentration, measured based on staining intensity, in E0771 and AK4.4 tumors (FIGS. 24B-24C). Of note, dense collagen seemed to colocalize with low-perfusion areas (FIG. 24C). Next, solid stress in these tumors was measured using recently established technique described in Stylianopoulos T, et al., Growth-induced mechanical stress in murine and human tumors: causes, consequences and remedies. under review. 2012. […]
Solid stress: Solid stress was measured using the tumor opening technique as described previously (Stylianopoulos T, et al., Growth-induced mechanical stress in murine and human tumors: causes, consequences and remedies. under review. 2012). […] Subsequently, each tumor was excised, washed with Hanks' Balanced Salt Solution (HBSS) and its three dimensions were measured. […] Afterwards, the opening resulting from the cut was measured at the middle of the cut at the surface of the tumor. […]

Assay [1] relates to E0771 breast tumors. As to the kind of experiment: Breast tumor growth and survival studies. Format: in vivo, mice. As for the experimental part:
(§1) Breast tumor growth and survival studies: Mice bearing orthotopic E0771 or 4T1 breast tumors were split into treatment groups, time-matched for time after implantation and size-matched for tumor volume at this time (110-111 mm^3 in E0771, in 4T1). […] The primary tumors were then measured every 2 days, beginning on day 0, using calipers. Tumor growth was quantified using the time for each to reach double its initial volume Animal survival was quantified based on time of death after initiation of treatment or time to reach excessive tumor burden (>1000 mm^3).

The next assay concerns 4T1 breast tumors. As to the kind of experiment: Breast tumor growth and survival studies. Format: in vivo, mice.
Description: In FIG. 35B, the quantification of tumor growth rates, based on the time to reach double the initial volume, is shown.
In FIG. 35C, the animal survival following the initiation of treatment is shown. […] Statistical tests were corrected for multiple comparisons using the Holm-Bonferroni method.
as §1

Assay [2] concerns E0771 breast tumors. As to the kind of experiment: Tumor matrix level histology (collagen I). Further details: species or system SCID mouse. Conditions: mouse, in vivo. As for the experimental part:
Collagen levels were used as a metric of matrix production as described in Diop-Frimpong et al., Proc Nall Acad Sci USA. […] Next, solid stress in these tumors was measured using recently established technique described in Stylianopoulos T, et al., Growth-induced mechanical stress in murine and human tumors: causes, consequences and remedies. under review.
Vessel perfusion, matrix level, and hypoxia histology: For breast tumors, mice bearing orthotopic E0771 were split into treatment groups, time-matched for time after implantation and size-matched for tumor volume at this time (−100 mm^3). For pancreatic tumors, mice bearing orthotopic AK4.4 were split into treatment groups, size-matched for tumor volume (˜22 mm^3), 6 days after implantation. […] On the day of the last treatment, mice were slowly (−2 min) injected with 100 μL of 1 mg/mL biotinylated lectin (Vector Labs), administered retro-orbitally 5 min prior to tumor removal. For hypoxia studies, the mice were also injected with 60 mg/kg of 10 mg/mL pimonidazole 1 hr prior to tumor removal. […] For matrix staining, collagen I was detected using the LF-67 antibody provided by Dr. Larry Fisher (National Institute of Dental Research, Bethesda, Md.).
Histological image analysis: Eight random images (four interior, four periphery) at 20× magnification were taken from each slide using a confocal microscope (Olympus). […] For perfusion, the number of vessels counted by this program with colocalization of lectin and CD31 staining was divided by the number of vessels counted with CD31 staining. For vessel metrics, including diameter and density, the program determined the average size of all counted vessels and their length, as well as the count per area Images of collagen I stained sections were analyzed based on the area fraction of positive staining and on the average staining intensity (concentration) in each image. […] Images of hypoxia staining with pimonidazole were similarly analyzed for the area fraction of positive staining, counting the fraction of pixels above a threshold based on background intensity.

A further assay deals with E0771 tumors. As to the kind of experiment: Solid stress (tumor opening technique). Also on record: species or system mice. Conditions: mouse, in vivo.
Setting [3] is: agent given alone (losartan 40 mg/kg daily or doxorubicin 2 mg/kg every three days).

Data on 4 compounds can be found in patent US20130287688A1, “NOVEL COMPOSITIONS AND USES OF ANTI-HYPERTENSION AGENTS FOR CANCER THERAPY” (XTUIT PHARMACEUTICALS, INC., priority 2010, published 2013).

Description for E0771 tumors: Solid stress was assessed using an ex vivo technique involving the measurement of the extent of tumor tissue relaxation (tumor opening relative to tumor diameter) following a stress-releasing incision, with larger openings indicating higher stress.
When the tumors reached a size of −1 cm in diameter, the mice were anesthetized. Subsequently, each tumor was excised, washed with Hanks' Balanced Salt Solution (HBSS) and its three dimensions were measured. Each tumor was cut along its longest axis, to a depth of 80% of its shortest dimension, using a scalpel. The tumors were allowed to relax for 10 minutes in HBSS to diminish any transient, poro-elastic responses. Afterwards, the opening resulting from the cut was measured at the middle of the cut at the surface of the tumor. Solid stress is proportional to the size of the opening relative to the size of the dimension perpendicular to the cut.

Regarding `CCOc1nc2cccc(C(=O)O)c2n1Cc1ccc(-c2ccccc2-c2nnn[nH]2)cc1` [candesartan], in the assay with tumors, the solid stress result is listed as “reduce solid stress to a similar degree”.

With `COc1cccc2c1C(=O)c1c(O)c3c(c(O)c1C2=O)C[C@@](O)(C(=O)CO)C[C@@H]3O[C@H]1C[C@H](N)[C@H](O)[C@H](C)O1` [doxorubicin], the tumor growth rate entry in the assay with E0771 breast tumors [1] (setting [3]) and with 4T1 breast tumors (setting [3]) was “no significant effect” in each case. Further, the median survival with E0771 breast tumors [1] (doxorubicin alone) was determined as 16 days. Further, in the assay with 4T1 breast tumors (monotherapy), the survival entry is reported as “improves survival”.

Regarding `NCCCC[C@H](N[C@@H](CCc1ccccc1)C(=O)O)C(=O)N1CCC[C@H]1C(=O)O` [lisinopril], the “matrix production, collagen I area fraction” value in the assay on E0771 breast tumors [2] is reported as “decreases”. Also, in the assay on E0771 tumors, the solid stress result is given as “reduces solid stress”.

Turning to `CCCCC(=O)N(Cc1ccc(-c2ccccc2-c2nnn[nH]2)cc1)[C@H](C(=O)O)C(C)C` [valsartan], in the assay with tumors, the solid stress entry is “reduce solid stress to a similar degree”.
